Results on 34 compounds are retold here after patent publication US10106542B2, “Substituted 6,7-dihydropyrazolo[1,5-a]pyrazines as negative allosteric modulators of mGluR2 receptors” (Janssen Pharmaceutica NV, priority 2013, dated 2018).

The assay has as its target T1, human mGlu2 receptor (Homo sapiens, UniProt Q14416).
T1 construct: expressed in transfected cells; host or cells: CHO cells (membrane preparation)
Kind of assay: [35S]GTPγS binding assay (mGluR2 negative allosteric modulation). The format is biochemical. The following applies: for IC50: membranes from CHO cells transfected with human mGlu2 receptor, glutamate 60 μM, pIC50 = −log IC50 (M), read-out: GTPγS - hmGluR2 anGT pIC50 (converted); for Emax / GTPγS - hmGluR2 anGT Emax: relative maximal effect: maximal % inhibition relative to the control glutamate response; for Emax: read-out: GTPγS - hmGluR2 anGT Emax. How it is done:
1) [^35S]GTPγS binding assay
The [^35S]GTPγS binding assay is a functional membrane-based assay used to study G-protein coupled receptor (GPCR) function whereby incorporation of a non-hydrolysable form of GTP, [^35S]GTPγS (guanosine 5′-triphosphate, labelled with […] ^35S), is measured. The G-protein a subunit catalyzes the exchange of guanosine 5′-diphosphate (GDP) by guanosine triphosphate (GTP) and on activation of the GPCR by an agonist, [^35S]GTPγS, becomes incorporated and cannot be cleaved to continue the exchange cycle (Harper (1998) Current Protocols in Pharmacology 2.6.1-10, John Wiley & Sons, Inc.). […] Here we describe the use of the [^35S]GTPγS binding assay using membranes from cells transfected with the human mGlu2 receptor and adapted from Schaffhauser et al. (Molecular Pharmacology, 2003, […]) for the detection of the negative allosteric modulation (NAM) properties of the compounds of this invention.
CHO-cells were cultured to pre-confluence and stimulated with 5 mM butyrate for 24 h. Cells were then collected by scraping in PBS and cell suspension was centrifuged (10 min at 4000 RPM in benchtop centrifuge). Supernatant was discarded and pellet gently resuspended in 50 mM Tris-HCl, pH 7.4 by mixing with an Ultra Turrax homogenizer. The suspension was centrifuged at 12,400 RPM (Sorvall F14S-6x250Y) for 10 minutes and the supernatant discarded. The pellet was homogenized in 5 mM Tris-HCl, pH 7.4 using an Ultra Turrax homogenizer and centrifuged again (13,000 RPM, 20 min, 4° C.). The final pellet was resuspended in 50 mM Tris-HCl, pH 7.4 and stored at −80° C. in appropriate aliquots before use. Protein concentration was determined by the Bradford method (Bio-Rad, USA) with bovine serum albumin as standard.
Measurement of mGluR2 negative allosteric modulatory activity of test compounds was performed as follows. Test compounds and glutamate were diluted in assay buffer containing 10 mM HEPES acid, 10 mM HEPES salt, pH 7.4, 100 mM NaCl, 3 mM MgCl2 and 10 μM GDP. Human mGlu2 receptor-containing membranes were thawed on ice and diluted in assay buffer supplemented with 18 μg/ml saponin. […] After addition of [^35S]GTPγS (f.c. 0.1 nM), assay mixtures were shaken briefly and further incubated to allow [^35S]GTPγS incorporation on activation (30 minutes, 30° C.). Final assay mixtures contained 7 μg of membrane protein in 10 mM HEPES acid, 10 mM HEPES salt, pH 7.4, 100 mM NaCl, 3 mM MgCl2, 10 μM GDP and 10 μg/ml saponin. Total reaction volume was 200 μl. Reactions were terminated by rapid filtration through Unifilter-96 GF/B plates (Perkin Elmer, Massachusetts, USA) using a 96-well filtermate universal harvester. Filters were washed 6 times with ice-cold 10 mM NaH2PO4/10 mM Na2HPO4, pH 7.4. Filters were then air-dried, and 30 μl of liquid scintillation cocktail (Microscint-O) was added to each well. Membrane-bound radioactivity was counted in a Topcount.
The concentration-response curves of representative compounds of the present invention were generated using the Lexis software interface (developed at J&J). Data were calculated as % of the control glutamate response, defined as the response that is generated upon addition of an EC80-equivalent concentration of glutamate.
(GTPγS resists hydrolysis and so accumulates on activated G proteins.)

T1 sequence (Q14416 19-872): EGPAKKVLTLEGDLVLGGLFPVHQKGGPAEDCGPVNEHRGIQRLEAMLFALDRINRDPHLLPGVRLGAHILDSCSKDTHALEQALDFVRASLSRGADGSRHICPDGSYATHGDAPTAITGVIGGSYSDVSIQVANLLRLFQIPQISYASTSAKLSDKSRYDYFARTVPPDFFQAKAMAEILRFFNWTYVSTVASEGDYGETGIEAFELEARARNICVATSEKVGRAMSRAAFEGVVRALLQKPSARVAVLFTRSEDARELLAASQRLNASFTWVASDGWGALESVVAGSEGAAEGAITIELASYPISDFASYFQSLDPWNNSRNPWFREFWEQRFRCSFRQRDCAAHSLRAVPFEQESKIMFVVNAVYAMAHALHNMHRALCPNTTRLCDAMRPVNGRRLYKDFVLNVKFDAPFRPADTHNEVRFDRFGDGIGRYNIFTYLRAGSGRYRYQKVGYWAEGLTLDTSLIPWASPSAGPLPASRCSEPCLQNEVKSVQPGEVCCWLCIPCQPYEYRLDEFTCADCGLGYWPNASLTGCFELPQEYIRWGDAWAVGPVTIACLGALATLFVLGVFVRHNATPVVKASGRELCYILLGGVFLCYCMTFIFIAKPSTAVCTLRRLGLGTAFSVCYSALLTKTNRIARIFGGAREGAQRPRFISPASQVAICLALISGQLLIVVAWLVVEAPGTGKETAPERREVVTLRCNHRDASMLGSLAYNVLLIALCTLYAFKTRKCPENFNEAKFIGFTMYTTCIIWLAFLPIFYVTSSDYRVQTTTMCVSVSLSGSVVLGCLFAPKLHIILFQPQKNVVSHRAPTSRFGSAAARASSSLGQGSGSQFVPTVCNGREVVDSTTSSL

`CC(=O)N1CCN(c2cc(-c3cnn4c3C(=O)N(c3ccc(C(F)(F)F)cc3)C[C@@H]4C)ccn2)CC1` [compound 106, (7S)-3-[2-(4-Acetylpiperazin-1-yl)-4-pyridyl]-7-methyl-5-[4-(trifluoromethyl)phenyl]-6,7-dihydropyrazolo[1,5-a]pyrazin-4-one]: the IC50 is 6.03e-07 M and the Emax (in general, the maximal effect, on the per cent scale that the assay sets) was determined as 109%.
For `C[C@H]1CN(c2ccc(C(F)(F)F)cn2)C(=O)c2c(-c3ccncc3)cnn21` [compound 190], in that order: 2.09e-07 M and 105%.
For `Cc1cc(-c2cnn3c2C(=O)N(c2ccc(C(C)O)cc2)C[C@@H]3C)ccn1` (stereo partly drawn) [compound 149, (7S)-5-[4-(1-Hydroxyethyl)phenyl]-7-methyl-3-(2-methyl-4-pyridyl)-6,7-dihydropyrazolo[1,5-a]pyrazin-4-one], in that order: more than 5.01e-05 M and 49%.
Take `Cc1cc(-c2cnn3c2C(=O)N(c2ccc(Cl)cn2)C[C@@H]3C)ccn1` [compound 187]: the IC50 is 3.24e-07 M and the Emax was found to be 108%.
For `CCCNc1cc(-c2cnn3c2C(=O)N(c2ccc(C(F)(F)F)c(Cl)c2)C[C@@H]3C)ccn1` [compound 264], in that order: 2.69e-09 M and 108%.
For the compound `C[C@H]1CN(c2ccc(Cl)c(Cl)c2)C(=O)c2c(-c3ccnc(CF)c3)cnn21` [compound 117], the IC50 is 7.59e-09 M and the Emax worked out at 109%.
As for `C[C@H]1CN(c2ccc(C(F)(F)F)c(Cl)c2)C(=O)c2c(-c3ccnc(OCCF)c3)cnn21` [compound 177], the IC50 is 9.33e-09 M and the Emax was 105%.
Take `Cc1cc(-c2cnn3c2C(=O)N(c2ccc(C(F)(F)F)cc2)CC3C(F)F)ccn1` (centres unmarked) [compound 181, 7-(Difluoromethyl)-3-(2-methyl-4-pyridyl)-5-[4-(trifluoromethyl)phenyl]-6,7-dihydropyrazolo[1,5-a]pyrazin-4-one]: the IC50 is 4.17e-07 M and the maximum response (Emax) was 103%.
Take `CNc1cc(-c2cnn3c2C(=O)N(c2ccc(Cl)cc2)C[C@@H]3C)ccn1` [compound 178]: the IC50 is 2.4e-08 M and the Emax stood at 107%.
For `CNc1cc(-c2cnn3c2C(=O)N(c2ccc(C(F)(F)F)cc2)C[C@@H]3C)cc(F)n1` [compound 243], in that order: 2.24e-08 M and 116%.
As for `CNc1cc(-c2cnn3c2C(=O)N(c2ccc(C(F)(F)F)cc2)C[C@@H]3C)cc(C)n1` [compound 241], the IC50 is 1.82e-08 M and the Emax is 109%.
For `Cc1cc(-c2cnn3c2C(=O)N(c2cccc(OC(F)(F)F)c2)C[C@@H]3C)ccn1` [compound 58] the same measures were 2.19e-08 M and 107%.
For `Cc1cc(-c2cnn3c2C(=O)N(c2ccc(C(F)(F)F)c(OC(C)C)c2)C[C@@H]3C)ccn1` [compound 154] the same measures were 2e-08 M and 104%.
Regarding `CCCc1ccc(N2C[C@H](C)n3ncc(-c4ccnc(C)c4)c3C2=O)cc1` [compound 66], the IC50 was 4.07e-08 M and the Emax was 107%.
For `CC(C)Oc1cc(-c2cnn3c2C(=O)N(c2ccc(C(F)(F)F)cc2)C[C@@H]3C)ccn1` [compound 138], in that order: 6.76e-08 M and 105%.
As to `Cc1cc(-c2cnn3c2C(=O)N(c2ccc(Cl)c(OC(F)F)c2)C[C@@H]3C)ccn1` [compound 163], the IC50 is 1.1e-08 M and the Emax is 103%.
For the compound `Cc1cc(-c2cnn3c2C(=O)N(c2ccc(C#N)c(F)c2)C[C@@H]3C)ccn1` [compound 75], the IC50 was 2.75e-07 M and the Emax was determined as 100%.
In the case of `CCCNc1cc(-c2cnn3c2C(=O)N(c2ccc(C(F)(F)F)c(C)c2)C[C@@H]3C)ccn1` [compound 258], the IC50 is 6.03e-09 M and the Emax worked out at 108%.
Consider `CCOc1ccc(Cl)c(N2C[C@H](C)n3ncc(-c4ccnc(C)c4)c3C2=O)n1` [compound 195], for which the IC50 is 4.07e-06 M and the Emax turned out to be 92%.
For the compound `Cc1cc(-c2cnn3c2C(=O)N(c2ccc(C(F)(F)F)c(C)n2)C[C@@H]3C)ccn1` [compound 192, (7S)-7-Methyl-3-(2-methyl-4-pyridyl)-5-[6-methyl-5-(trifluoromethyl)-2-pyridyl]-6,7-dihydropyrazolo[1,5-a]pyrazin-4-one], the IC50 was 7.41e-09 M and the Emax came out at 106%.
For `Cc1cc(-c2cnn3c2C(=O)N(c2cc(F)cc(Cl)c2)C[C@@H]3C)ccn1` [compound 63] the same measures were 3.39e-08 M and 105%.
On to `Cc1cc(-c2cnn3c2C(=O)N(c2ccc(Cl)c(Cl)c2)C[C@@H]3C)ccn1` [6a], for which the IC50 is 4.79e-09 M and the “GTPγS - hmGluR2 anGT Emax” value is listed as 112%.
In the case of `C[C@H]1CN(c2ccc(Cl)c(Cl)c2)C(=O)c2c(-c3ccnc(N4CCC4)c3)cnn21` [compound 97], the IC50 was 1.66e-09 M and the maximum response (Emax) came out at 104%.
`CCOc1ccc(C(F)(F)F)c(N2C[C@H](C)n3ncc(-c4ccnc(C)c4)c3C2=O)n1` [compound 199]: the IC50 was 2.57e-05 M and the Emax was determined as 67%.
Take `COCC1CN(c2ccc(Cl)c(Cl)c2)C(=O)c2c(-c3ccnc(C)c3)cnn21` (single isomer, unassigned) [compound 119]: the IC50 is 2.51e-06 M and the “GTPγS - hmGluR2 anGT Emax” value turned out to be 100%.
Take `COc1nc(N2C[C@H](C)n3ncc(-c4ccnc(C)c4)c3C2=O)ccc1Cl` [compound 206]: the IC50 was 1.78e-08 M and the Emax worked out at 111%.
For `C[C@H]1CN(c2ccc(C(F)(F)F)cc2)C(=O)c2c(-c3ccnc(N4CCCCC4)c3)cnn21` [compound 107], in that order: 1.78e-08 M and 114%.
For `C[C@H]1CN(c2ccc(C(F)(F)F)cc2)C(=O)c2c(-c3ccnc(C4CC4)c3)cnn21` [compound 173] the same measures were 4.37e-09 M and 106%.
On to `Cc1cc(-c2cnn3c2C(=O)N(c2ccc(C4CC4)cc2)C[C@@H]3C)ccn1` [compound 156, (7S)-5-(4-Cyclopropylphenyl)-7-methyl-3-(2-methyl-4-pyridyl)-6,7-dihydropyrazolo[1,5-a]pyrazin-4-one], for which the IC50 is 5.62e-08 M and the Emax is 106%.
For `Cc1cc(-c2cnn3c2C(=O)N(c2ccc(C(F)(F)F)cc2)CC3C(F)(F)F)ccn1` (centres unmarked) [compound 238, 3-(2-Methyl-4-pyridyl)-7-(trifluoromethyl)-5-[4-(trifluoromethyl)phenyl]-6,7-dihydropyrazolo[1,5-a]pyrazin-4-one] the same measures were 2.14e-06 M and 103%.
For `C[C@H]1CN(c2ccc(C(F)(F)F)cc2)C(=O)c2c(-c3cccnc3)cnn21` [compound 32], in that order: 5.62e-07 M and 101%.
With `C[C@H]1CN(c2ccc(C(F)(F)F)c(Cl)c2)C(=O)c2c(-c3ccnc(N4CC(F)C4)c3)cnn21` [compound 92], the IC50 was 2.95e-09 M and the Emax is 107%.
Turning to `Cc1cc(-c2cnn3c2C(=O)N(c2ccc(Cl)c(Cl)c2)CC3CF)ccn1` (single isomer, unassigned) [compound 116], the IC50 is 5.62e-07 M and the “GTPγS - hmGluR2 anGT Emax” value is on record as 105%.
As to `Cc1cc(-c2cnn3c2C(=O)N(c2cc(C)c(C(F)(F)F)cn2)C[C@@H]3C)ccn1` [compound 193], the IC50 was 1.91e-08 M and the Emax was 103%.
